Holding throughout (test): NCI tumour cell line growth inhibition, 48 h
Test [1] has as its system SF-268 CNS.
Test [2] deals with HOP-62 NSCLC.
Test [3] has as its system CCRF-CEM leukemia.
Test [4] deals with A498 renal.
The test system of test [5] is HCT-116 colon.
Test [6] has as its system RXF 393 renal.
Test [7] deals with UACC-257 melanoma.
The test system of test [8] is NCI-H522 lung.
In test [9] the test system is SK-MEL-5 melanoma.
In test [10] the test system is HCT-15 colon.

Structures are written as SMILES. Several values for one entry are separate records, joined by “and”; a condition that tells them apart may be missing. Equal values may be shown once.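 The compound was tested at five concentrations on cells cultured in 96-well plates, with a 48-hour exposure period. GI50 is the concentration that inhibits growth by half. TGI denotes the concentration required for complete inhibition of growth.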

As for `Cc1c(CN2CCC(Nc3ncnc4sc(CC(F)(F)F)cc34)CC2)ccc2c1cc(C#N)n2Cc1cn[nH]c1`, the GI50 in [1] is 4.48 µM and 5.71 µM; in [2] it was 3.38 µM and 5.46 µM; in [3], 2.98 µM and 2.97 µM; in test [4] it was 7.55 µM; in test [5], 1.12 µM and 1.99 µM; in test [6], 1.94 µM and 2.74 µM. In addition, the GI50 in [7] is 1.37 µM and 5.31 µM; in test [8] it was 3.77 µM and 5.24 µM; in test [9], 0.967 µM and 0.958 µM; in test [10], 2.62 µM and 3.24 µM. Besides, the TGI in test [1] is 25.5 µM and > 36.5 µM; in test [2] it was 22 µM and > 44.6 µM; in test [3], above 33.7 µM; in [4], 79.4 µM and > 39.1 µM; in [5], 2.4 µM; in test [6] it was 12.9 µM and 10.5 µM. The TGI in [8] was 23.2 µM and > 27.5 µM; in test [9] it was 2.61 µM and 3.02 µM; in test [10], 10.3 µM.
Turning to `C=C1C(=O)O[C@@H]2C[C@@H](C)[C@@H]3[C@@H](OC4OC(COC(C)=O)C(O)C(O)C4O)CC(=O)[C@@]3(C)C[C@H]12` (stereo partly specified), the TGI in test [1] was determined as 44.7 µM; in test [2], 31.6 µM; in test [3] it was 16.1 µM; in test [4], 30.1 µM; in test [5], 1.88 µM; in test [6], 4.21 µM. Besides, the TGI in test [7] was 3.49 µM; in test [8], 0.301 µM; in test [9], 4.86 µM; in test [10], 0.582 µM.
Consider `C=CCN=C1N=C(CC(=O)OCC)CS1`, for which the TGI in [1], in test [2], in test [3], in [4], in test [5] and in test [6] was above 100 µM each time. In addition, the TGI in [7], in test [8], in test [9] and in test [10] was above 100 µM in each case.
As for `O=C(Nc1nccs1)c1cc(C2=CC=CC([N+](=O)[O-])C=C2)nc(=S)[nH]1` (stereo unspecified), the TGI in test [1], in test [2], in test [3], in test [4], in test [5] and in [6] was above 100 µM in each case. For the same compound, the TGI in test [7], in test [8], in test [9] and in test [10] was above 100 µM throughout.
As for `Cc1cc2c(C(N)=O)cccc2n1-c1nc2c(c(NCc3ccccc3)n1)CCCN2`, the GI50 in test [1] was 0.213 µM; in [2], 0.217 µM; in test [3] it was 0.295 µM; in test [4] it was 0.212 µM; in test [5], 0.0831 µM; in test [6], 0.126 µM. Besides, the GI50 in [7] was 0.167 µM; in test [8], 0.164 µM; in test [9], 0.0598 µM; in [10] it was 0.162 µM. Besides, the TGI in test [1] was found to be 0.487 µM; in [2], 0.454 µM; in [3], 19.8 µM; in test [4], 0.362 µM; in test [5], 0.631 µM; in test [6] it was 0.273 µM. Also, the TGI in [7] came to 0.347 µM; in test [8], 0.359 µM; in [9], 0.181 µM; in [10] it was 0.467 µM.
On to `COc1cc2c(cc1OC)[C@@H](C(O)c1ccccc1)NCC2` (stereo partly specified), for which the TGI in test [1], in test [2], in test [3], in [4], in test [5] and in test [6] was above 100 µM in each case. For the same compound, the TGI in test [7], in test [8], in test [9] and in test [10] was above 100 µM each time.
Take `CCS(=O)(=O)c1ccc(OC)c(Nc2nccc(N(C)c3ccc4c(C)[nH]nc4c3)n2)c1`: the GI50 in [1] is 4.74 µM; in test [2], 6.72 µM; in [3], 8.15 µM; in test [4], 1.18 µM; in [5] it was 8.69 µM; in [6], 2.7 µM. Further, the GI50 in test [7] is 7.57 µM; in test [8], 3.57 µM; in test [9], 4 µM; in [10] it was 5.3 µM. Besides, the TGI is above 17.6 µM in test [1]; above 25 µM in [2]; above 25 µM in test [3]; 6.58 µM in test [4]; above 25 µM in test [5]; 7.81 µM in test [6]. Also, the TGI in test [7] is above 24 µM; in test [8], 10.5 µM; in test [9], 8.38 µM; in [10] it was 18.3 µM.
Regarding `CCc1oc2ccccc2c1C(=O)c1cc(Br)c(O)c(Br)c1`, the TGI in test [1] is 84.7 µM; in test [2], 85.7 µM; in test [3], 55.4 µM; in [4], 45 µM; in test [5], 55.7 µM; in [6] it was 35 µM. In addition, the TGI in test [7] amounted to 42.8 µM; in test [8] it was 43.1 µM; in test [9], 32.2 µM; in [10], 76.2 µM.
Consider `O=C(N/N=C/c1ccc(O)cc1O)c1ccc(Nc2ccnc(C(F)(F)F)c2)cc1`, for which the GI50 was 0.156 µM in test [1]; 0.0913 µM in [3]; above 41.3 µM in test [4]; 39.1 µM in test [5]; 17.3 µM in test [6]; above 100 µM in test [7]. Further, the GI50 in test [8] is 13.5 µM; in [9] it was above 100 µM; in test [10] it was above 100 µM. Besides, the TGI is 33.3 µM in test [1]; above 100 µM in test [3]; 97.4 µM in test [4]; above 100 µM in test [5]; 64.1 µM in [6]; above 100 µM in [7]. In addition, the TGI in test [8] is above 70 µM; in test [9] it was above 100 µM; in [10] it was above 100 µM.
With `O=Cc1[nH]c2ccccc2c1Br`, the TGI in test [1] was found to be 69.8 µM; in test [2], 40.6 µM; in test [3], 99.2 µM; in test [4] it was 33.6 µM; in [5], 38.1 µM; in test [6], 67.8 µM. The TGI is 67.4 µM in [7], above 100 µM in [8] and 31.1 µM in [9].
With `Cc1nn2c(/C=C3/C(=O)Nc4ccccc43)c(-c3ccc(Cl)cc3)nc2s1`, the GI50 is 19.9 µM in [1]; 22.4 µM in [2]; 12.3 µM in test [3]; above 50 µM in test [4]; 14.1 µM in test [6]; 37.3 µM in [7]. Moreover, the GI50 in [8] is 46 µM; in test [9] it was 26.3 µM; in [10] it was 15.3 µM. Further, the TGI in test [1] is above 50 µM; in [2], above 50 µM; in test [3] it was above 50 µM; in test [4] it was above 50 µM; in [6], 42.8 µM; in test [7] it was above 50 µM. Also, the TGI in test [8], in [9] and in [10] was above 50 µM throughout.
As to `O=C(Nc1ccc2oc(=O)c(C(=O)O)cc2c1)Oc1ccccc1`, the TGI in test [1], in [2], in test [4], in test [5], in test [6] and in test [7] was above 100 µM in each case. In addition, the TGI in test [8], in test [9] and in [10] was above 100 µM throughout.
For the compound `Cn1c2ccccc2c2nnc(N/N=C/c3ccccn3)nc21`, the GI50 in [1] was 0.343 µM; in test [2] it was 0.337 µM; in test [3], 0.301 µM; in [4] it was 0.396 µM; in test [5], 0.349 µM; in test [6], 2.8 µM. The GI50 in [7] is 0.433 µM; in test [8], 0.574 µM; in test [9] it was 0.24 µM; in test [10] it was 0.374 µM. Moreover, the TGI in test [2] is 6.02 µM; in test [3], above 33.1 µM; in test [4], 5.05 µM; in test [5] it was above 38.4 µM; in test [6], above 42.3 µM; in test [8], 33 µM. The TGI is 0.806 µM in [9] and above 100 µM in test [10].
With `CNC1NC(=O)c2ccccc2N1Cc1ccc(F)cc1` (stereo unspecified), the TGI in test [1], in test [2], in test [3], in test [4], in [5] and in [6] was above 100 µM in each case. Besides, the TGI in test [7], in [8], in test [9] and in test [10] was above 100 µM in each case.
On to `C=C(CN1CCN(c2ccccc2F)CC1)c1ccc(C(=O)Nc2ccccc2N)cc1`, for which the GI50 in test [1] is 2.36 µM; in test [2], 1.15 µM; in test [4], 2.51 µM; in test [5], 0.957 µM; in [6], 0.702 µM; in test [7] it was 0.992 µM. Further, the GI50 in test [8] is 1.48 µM; in test [9], 1.51 µM; in test [10], 0.737 µM. In addition, the TGI in test [1] is above 100 µM; in [2] it was 9.45 µM; in test [4], 22.9 µM; in test [5], 13.5 µM; in test [6], 7.08 µM; in test [7], 35.3 µM. Besides, the TGI is 4.41 µM in test [8], 16.8 µM in test [9] and above 100 µM in test [10].
As for `Cc1c(Cl)cccc1NC(=O)c1sc2nc3c(cc2c1N)CCCCCC3`, the GI50 is 0.821 µM in [1]; 0.326 µM in test [2]; 0.176 µM in test [3]; 0.202 µM in [4]; 0.195 µM in test [5]; 0.133 µM in [6]. Besides, the GI50 in [8] was 0.116 µM; in test [9] it was 0.177 µM; in test [10], 0.156 µM. Also, the TGI in [1] is above 50 µM; in test [2], 19.8 µM; in test [3], above 50 µM; in test [4] it was 9.16 µM; in [5], above 50 µM; in test [6], 3.5 µM. In addition, the results for the TGI in test [8], in test [9] and in [10] were 1.07 µM, 10.5 µM and above 50 µM, respectively.
`Cc1nc(Nc2ccc(F)c(Cl)c2)sc1C(=O)O`: the GI50 in test [1] is 1.76 µM; in test [2] it was 1.42 µM; in test [3] it was 3.01 µM; in [4], 1.64 µM; in test [5] it was 1.51 µM; in test [6] it was 1.71 µM. The GI50 in test [7] is 1.78 µM; in test [8], 1.1 µM; in test [9], 1.48 µM. The TGI was 4.36 µM in [1]; 2.93 µM in test [2]; above 100 µM in test [3]; 4.16 µM in [4]; 3.34 µM in test [5]; 3.94 µM in [6]. The TGI amounted to 3.36 µM in [7], 3.17 µM in test [8] and 2.82 µM in test [9].
Take `O=[N+]([O-])c1cc(Br)cc2c1[nH]c1ccc(Br)cc12`: the GI50 in test [1] was 10.2 µM; in [2], 2.11 µM; in test [4], 6.86 µM; in [5], 5 µM; in test [6], 5.04 µM; in [7] it was 86 µM. For the same compound, the GI50 is 3.09 µM in test [8], 8.03 µM in [9] and 28 µM in [10]. For the same compound, the TGI in test [1] is 45.9 µM; in [2], 5 µM; in test [4], 81.8 µM; in [5], 21.5 µM; in test [6] it was 20.9 µM; in test [7] it was above 100 µM. For the same compound, the TGI is 40.3 µM in test [8], above 100 µM in test [9] and above 100 µM in [10].
For the compound `Cn1c2ccc([N+](=O)[O-])cc2c(=O)c2c(O)cc(O)cc21`, the TGI is 80.2 µM in test [1]; above 100 µM in test [3]; above 100 µM in test [4]; 52 µM in test [6]; above 100 µM in test [7]; 24 µM in test [8]. Moreover, the TGI in test [9] and in [10] was above 100 µM in each case.

The values are drawn from PubChem BioAssay (NCI).
